This note sets out measurements from ChEMBL document CHEMBL1149428, “Design, synthesis, and biological activity of novel polycyclic aza-amide FKBP12 ligands” (J Med Chem, 2006).

Peptidyl-prolyl cis-trans isomerase FKBP1A, sequence (P62942 whole entry): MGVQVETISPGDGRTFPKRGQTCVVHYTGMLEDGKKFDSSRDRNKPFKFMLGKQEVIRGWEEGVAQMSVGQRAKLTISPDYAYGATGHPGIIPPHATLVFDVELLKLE

This assay concerns the target Peptidyl-prolyl cis-trans isomerase FKBP1A (Homo sapiens, UniProt P62942). In words: Inhibition of FKBP12 rotamase activity.
For the compound `COc1cc2c(c(OC)c1)C1C3CCCC(C(=O)N1CC2)N3C(=O)C(=O)c1ccc(Cl)c(Cl)c1` (centres undefined), the Ki – broadly, the equilibrium dissociation constant of an inhibitor or competing ligand from its target – stood at 34 nM.

In turn, `COc1cc2c(c(OC)c1)C1C3CCCC(C(=O)N1CC2)N3C(=O)C(=O)c1ccc(Cl)cc1Cl` (centres undefined) returned a Ki of 586 nM.

With `COc1ccc2c(c1)CCN1C(=O)C3CCCC(C21)N3S(=O)(=O)Nc1ccc(F)c(F)c1` (centres undefined), the Ki is 150 nM.

Consider `COc1cc(C(=O)C(=O)N2C3CCCC2C2c4cc(F)ccc4CCN2C3=O)cc(OC)c1OC` (centres undefined), for which the Ki is 225 nM. On to `COc1cc2c(c(OC)c1)C1C3CCCC(C(=O)N1CC2)N3S(=O)(=O)c1ccc(C#N)cc1` (centres undefined), for which the Ki worked out at 82 nM. This Ki lies about 2.7-fold lower than the previous one. To `COc1cc2c(c(OC)c1)C1C3CCCC(CN1CC2)N3C(=O)C(=O)c1cc(OC)c(OC)c(OC)c1` (centres undefined) belongs 31700 nM; to `CCc1ccc(C(=O)C(=O)N2C3CCCC2C2c4c(cc(OC)cc4OC)CCN2C3=O)cc1` (centres undefined), 123 nM; to `COc1cc2c(c(OC)c1)C1C3CCCC(C(=O)N1CC2)N3C(=O)C(=O)c1ccccc1` (centres undefined), 100 nM. To `CCc1ccc(S(=O)(=O)N2C3CCCC2C2c4c(cc(OC)cc4OC)CCN2C3=O)cc1` (centres undefined) belongs 266 nM; to `COc1cc2c(c(OC)c1)C1C3CCCC(C(=O)N1CC2)N3C(=O)C(=O)c1ccc(OC)c(OC)c1` (centres undefined), 60 nM.

With `COc1cc2c(c(OC)c1)C1C3CCCC(C(=O)N1CC2)N3C(=O)C(O)c1ccc(Cl)cc1` (centres undefined), affinity was put at a Ki of 208 nM. Against the preceding compound, the Ki is about 3.5-fold higher.

`COc1cc2c(c(OC)c1)C1C3CCCC(C(=O)N1CC2)N3C(=O)N(c1ccc(F)cc1F)c1ccc(F)cc1F` (centres undefined) had a Ki of 7000 nM. In turn, `COc1ccc2c(c1)CCN1C(=O)C3CCCC(C21)N3C(=O)C(=O)c1cc(OC)c(OC)c(OC)c1` (centres undefined) came in with a Ki of 143 nM. To `COc1cc2c(c(OC)c1)C1C3CCCC(C(=O)N1CC2)N3C(=O)C(=O)c1cc(OC)c(OC)c(OC)c1` (centres undefined) belongs 69 nM; to `COc1cc2c(c(OC)c1)C1C3CCCC(C(=O)N1CC2)N3S(=O)(=O)c1cccc(Br)c1` (centres undefined), 54 nM; to `COc1cc2c(c(OC)c1)C1C3CCCC(C(=O)N1CC2)N3S(=O)(=O)c1cccc(C)c1` (centres undefined), 104 nM. Regarding `COc1cc2c(c(OC)c1)C1C3CCCC(C(=O)N1CC2)N3S(=O)(=O)c1ccc(-c2ccc(Cl)c(Cl)c2)cc1` (centres undefined), the Ki worked out at 156 nM. The same measure for `CCN(CC)c1ccc(C(=O)C(=O)N2C3CCCC2C2c4c(cc(OC)cc4OC)CCN2C3=O)cc1` (centres undefined): 1000 nM; for `COc1cc2c(c(OC)c1)C1C3CCCC(C(=O)N1CC2)N3C(=O)C(=O)c1cccnc1` (centres undefined): 110 nM.

Turning to `COc1ccc2c(c1)CCN1C(=O)C3CCCC(C21)N3S(=O)(=O)N1C[C@@H](C)O[C@@H](C)C1` (some centres undefined), the affinity corresponds to a Ki of 123 nM. As for `COc1cc(C(=O)C(=O)N2C3CCCC2C2c4cc(Cl)ccc4CCN2C3=O)cc(OC)c1OC` (centres undefined), the Ki turned out to be 126 nM. To `COc1cc2c(c(OC)c1)C1C3CCCC(C(=O)N1CC2)N3C(=O)C(=O)c1cccc(Cl)c1` (centres undefined) belongs 46 nM; to `COc1cc(C(=O)C(=O)N2C3CCCC2C2c4ccccc4CCN2C3=O)cc(OC)c1OC` (centres undefined), 217 nM; to `COc1ccc2c(c1)CCN1C(=O)C3CCCC(C21)N3S(=O)(=O)N1CCCCC1` (centres undefined), 360 nM. The same measure for `COc1cc(C(=O)C(=O)N2C3CCCC2C2c4ccc(Cl)cc4CCN2C3=O)cc(OC)c1OC` (centres undefined): 171 nM. To `COc1ccc2c(c1)CCN1C(=O)C3CCCC(C21)N3S(=O)(=O)Nc1cc(F)c(F)cc1F` (centres undefined) belongs 590 nM. Compound `COc1ccc2c(c1)CCN1C(=O)C3CCCC(C21)N3S(=O)(=O)Nc1ccc(OC)nc1` (centres undefined) displayed a Ki of 210 nM. `COc1cc2c(c(OC)c1)C1C3CCCC(C(=O)N1CC2)N3C(=O)C(=O)c1cccs1` (centres undefined) registered a Ki of 107 nM. Take `COc1ccc(C(=O)C(=O)N2C3CCCC2C2c4c(cc(OC)cc4OC)CCN2C3=O)cc1` (centres undefined): the affinity corresponds to a Ki of 131 nM. Compound `COc1cc2c(c(OC)c1)C1C3CCCC(C(=O)N1CC2)N3S(=O)(=O)c1ccccc1` (centres undefined) returned a Ki of 244 nM. The same measure for `COc1ccc2c(c1)CCN1C(=O)C3CCCC(C21)N3S(=O)(=O)Nc1ccc(N2CCOCC2)nc1` (centres undefined): 591 nM; for `COc1cc(C(=O)C(=O)N2C3CCCC2C2c4cccc(Cl)c4CCN2C3=O)cc(OC)c1OC` (centres undefined): 152 nM; for `COc1ccc2c(c1)CCN1C(=O)C3CCCC(C21)N3S(=O)(=O)Nc1cc(OC)c(OC)c(OC)c1` (centres undefined): 640 nM.

Turning to `COc1cc(OC)cc(C(=O)C(=O)N2C3CCCC2C2c4c(cc(OC)cc4OC)CCN2C3=O)c1` (centres undefined), the Ki is 34 nM. The same measure for `COc1cc(C(=O)C(=O)N2C3CCCC2C2c4cc(C)ccc4CCN2C3=O)cc(OC)c1OC` (centres undefined): 85 nM. To `COc1cc2c(c(OC)c1)C1C3CCCC(C(=O)N1CC2)N3C(=O)N(c1ccccc1C)c1ccccc1C` (centres undefined) belongs 330 nM.

Compound `COc1ccc2c(c1)CCN1C(=O)C3CCCC(C21)N3S(=O)(=O)Nc1cc(F)c(F)c(F)c1` (centres undefined) yielded a Ki of 236 nM. To `COc1cc2c(c(OC)c1)C1C3CCCC(C(=O)N1CC2)N3C(=O)N(c1ccccc1)c1ccccc1` (centres undefined) belongs 2700 nM; to `COc1cc2c(c(OC)c1)C1C3CCCC(C(=O)N1CC2)N3C(=O)C(F)(F)c1cc(OC)c(OC)c(OC)c1` (centres undefined), 91 nM. As to `COc1cc2c(c(OC)c1)C1C3CCCC(C(=O)N1CC2)N3C(=O)C(=O)c1ccc(Br)cc1` (centres undefined), the affinity corresponds to a Ki of 71 nM. The same measure for `COc1cc2c(c(OC)c1)C1C3CCCC(C(=O)N1CC2)N3S(=O)(=O)c1ccc(Br)cc1` (centres undefined): 92 nM; for `COc1cc2c(c(OC)c1)C1C3CCCC(C(=O)N1CC2)N3C(=O)C(=O)c1cc(C(C)(C)C)c(O)c(C(C)(C)C)c1` (centres undefined): 20800 nM; for `COc1cccc2c1CCN1C(=O)C3CCCC(C21)N3C(=O)C(=O)c1cc(OC)c(OC)c(OC)c1` (centres undefined): 105 nM. The compound `COc1cc2c(c(OC)c1)C1C3CCCC(C(=O)N1CC2)N3C(=O)C(=O)c1ccc(Cl)cc1` (centres undefined) gave a Ki of 72 nM. Compound `COc1cc2c(c(OC)c1)C1C3CCCC(C(=O)N1CC2)N3C(=O)C(=O)c1cc(Cl)ccc1Cl` (centres undefined) registered an inhibitory constant (Ki) of 153 nM. This Ki lies about 2.1-fold higher than the previous one.

In the case of `COc1cc2c(c(OC)c1)C1C3CCCC(C(=O)N1CC2)N3C(=O)C(=O)c1ccc(F)cc1` (centres undefined), the Ki came out at 110 nM. The same measure for `COc1cc2c(c(OC)c1)C1C3CCCC(C(=O)N1CC2)N3C(=O)N(c1ccccc1OC)c1ccccc1OC` (centres undefined): 357 nM; for `COc1cc2c(c(OC)c1)C1C3CCCC(C(=O)N1CC2)N3C(=O)Cc1ccc(Cl)cc1` (centres undefined): 3100 nM; for `COc1cc2c(c(OC)c1)C1C3CCCC(C(=O)N1CC2)N3C(=O)C(=O)c1cccc(Cl)c1Cl` (centres undefined): 282 nM. To `COc1cc2c(c(OC)c1)C1C3CCCC(C(=O)N1CC2)N3C(=O)C(=O)c1cc2ccccc2[nH]1` (centres undefined) belongs 2300 nM. The compound `COc1ccc2c(c1)CCN1C(=O)C3CCCC(C21)N3S(=O)(=O)Nc1ccc(Cl)nc1` (centres undefined) registered an inhibition constant (Ki) of 360 nM. Consider `COc1cc2c(c(OC)c1)C1C3CCCC(C(=O)N1CC2)N3S(=O)(=O)c1ccc(Nc2cc(OC)c(OC)c(OC)c2)cc1` (centres undefined), for which affinity was put at a Ki of 288 nM. To `COc1cc2c(c(OC)c1)C1C3CCCC(C(=O)N1CC2)N3C(=O)C(=O)c1ccccc1Cl` (centres undefined) belongs 583 nM. To `COc1cc2c(c(OC)c1)C1C3CCCC(C(=O)N1CC2)N3C(=O)C(=O)c1ccccc1O` (centres undefined) belongs 238 nM; to `COc1cc2c(c(OC)c1)C1C3CCCC(C(=O)N1CC2)N3C(=O)N(c1ccc([N+](=O)[O-])cc1)c1ccc([N+](=O)[O-])cc1` (centres undefined), 772 nM; to `COc1cc2c(c(OC)c1)C1C3CCCC(C(=O)N1CC2)N3S(=O)(=O)c1ccc(C)cc1` (centres undefined), 84 nM. For the compound `COc1cc(C(=O)C(=O)N2C3CCCC2C2c4c(F)cccc4CCN2C3=O)cc(OC)c1OC` (centres undefined), the Ki turned out to be 201 nM. This Ki is about 2.4-fold higher than that of the compound before. On to `COc1cc2c(c(OC)c1)C1C3CCCC(C(=O)N1CC2)N3C(=O)C(=O)c1ccco1` (centres undefined), for which the affinity, expressed as Ki, was 279 nM. To `COc1ccc2c(c1)CCN1C(=O)C3CCCC(C21)N3S(=O)(=O)Nc1ccc(F)nc1` (centres undefined) belongs 183 nM.
